Measurements reported in PubChem BioAssay AID248 (DTP/NCI, 2004).
Values joined by “and” are separate entries in the source; they are usually repeats but may differ in a detail not shown here. Equal values may be shown once. Toxic doses and inconclusive results are not listed. Rule as the data show it: active = T/C of 150% or more; inactive = T/C below 125%.

Tested on: L1210 leukemia ip in BDF1 mice, survival T/C
Test: NCI In Vivo Anticancer Drug Screen. Data for tumor model L1210 Leukemia (intraperitoneal) in B6D2F1 (BDF1) mice
Conditions: endpoint: mean survival time, higher = longer survival
In short: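 Each compound was tested against a transplantable tumor grown in mice. The endpoint was survival, with treated animals benchmarked against vehicle controls as a simple ratio.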

[1] = dose: 100.0 mg/kg/injection, schedule: Q01DX001 (ip), vehicle: saline
[2] = dose: 200.0 mg/kg/injection, schedule: Q01DX001 (ip), vehicle: saline

Measured: T/C

Cc1ccc(NC(=O)COc2ccc(Cl)cc2)cc1
inactive: dose: 100.0 mg/kg/injection, schedule: Q04DX002 (ip), vehicle: saline + alcohol 103 % of control | dose: 200.0 mg/kg/injection, schedule: Q04DX002 (ip), vehicle: saline + alcohol 100 % of control | dose: 400.0 mg/kg/injection, schedule: Q04DX002 (ip), vehicle: saline + alcohol 92 % of control

COC(=O)c1cscc1C=O
inactive: [1] 100 % of control | dose: 100.0 mg/kg/injection, schedule: Q04DX003 (ip), vehicle: acetone 102 % of control | dose: 100.0 mg/kg/injection, schedule: Q04DX003 (ip), vehicle: saline 100 % of control | [2] 104 % of control | dose: 200.0 mg/kg/injection, schedule: Q04DX003 (ip), vehicle: acetone 95 % of control | dose: 200.0 mg/kg/injection, schedule: Q04DX003 (ip), vehicle: saline 94 % of control | dose: 400.0 mg/kg/injection, schedule: Q01DX001 (ip), vehicle: saline 93 % of control | dose: 400.0 mg/kg/injection, schedule: Q04DX003 (ip), vehicle: acetone 93 % of control | dose: 400.0 mg/kg/injection, schedule: Q04DX003 (ip), vehicle: saline 93 % of control

O=C(CCC(=O)Nc1ccc(C2=NCCN2)cc1)Nc1ccc(C2=NCCN2)cc1
inactive: dose: 2.0 mg/kg/injection, schedule: Q01DX Z (ip), vehicle: carboxymethylcellulose (CMC) 100 % of control | dose: 3.0 mg/kg/injection, schedule: Q01DX Z (ip), vehicle: carboxymethylcellulose (CMC) 105 % of control | dose: 4.0 mg/kg/injection, schedule: Q01DX Z (ip), vehicle: carboxymethylcellulose (CMC) 114 % of control | dose: 6.0 mg/kg/injection, schedule: Q01DX Z (ip), vehicle: carboxymethylcellulose (CMC) 107 % of control | dose: 38.0 mg/kg/injection, schedule: Q01DX001 (ip), vehicle: carboxymethylcellulose (CMC) 120 % of control | dose: 38.0 mg/kg/injection, schedule: Q01DX001 (ip), vehicle: other 117 % of control | dose: 56.0 mg/kg/injection, schedule: Q01DX001 (ip), vehicle: carboxymethylcellulose (CMC) 120 % of control | dose: 56.0 mg/kg/injection, schedule: Q01DX001 (ip), vehicle: other 119 % of control | dose: 62.0 mg/kg/injection, schedule: Q01DX Z (oral), vehicle: carboxymethylcellulose (CMC) 104 % of control | dose: 64.0 mg/kg/injection, schedule: Q01DX Z (ip), vehicle: carboxymethylcellulose (CMC) 113 % of control | dose: 125.0 mg/kg/injection, schedule: Q01DX Z (oral), vehicle: carboxymethylcellulose (CMC) 104 % of control | dose: 250.0 mg/kg/injection, schedule: Q01DX Z (oral), vehicle: carboxymethylcellulose (CMC) 110 % of control
active: dose: 12.0 mg/kg/injection, schedule: Q01DX Z (ip), vehicle: carboxymethylcellulose (CMC) 173 % of control | dose: 16.0 mg/kg/injection, schedule: Q01DX Z (ip), vehicle: carboxymethylcellulose (CMC) 218 % of control and 234 % of control | dose: 24.0 mg/kg/injection, schedule: Q01DX Z (ip), vehicle: carboxymethylcellulose (CMC) 216 % of control | dose: 128.0 mg/kg/injection, schedule: Q01DX001 (ip), vehicle: carboxymethylcellulose (CMC) 183 % of control | dose: 500.0 mg/kg/injection, schedule: Q01DX Z (oral), vehicle: carboxymethylcellulose (CMC) 177 % of control

Cn1c(/C=C/c2ccccc2)c([N+](=O)[O-])c(=O)n(C)c1=O
inactive: dose: 50.0 mg/kg/injection, schedule: Q01DX009 (ip), vehicle: saline with Tween-80 106 % of control | dose: 100.0 mg/kg/injection, schedule: Q01DX009 (ip), vehicle: saline with Tween-80 98 % of control | dose: 200.0 mg/kg/injection, schedule: Q01DX009 (ip), vehicle: saline with Tween-80 98 % of control

Nc1cc2ccncc2c2ccccc12
inactive: dose: 50.0 mg/kg/injection, schedule: Q01DX009 (ip), vehicle: saline sonified 98 % of control | dose: 100.0 mg/kg/injection, schedule: Q01DX009 (ip), vehicle: saline sonified 104 % of control | dose: 100.0 mg/kg/injection, schedule: Q04DX003 (ip), vehicle: Klucel (hydroxypropylcellulose) (HPC) 97 % of control | dose: 200.0 mg/kg/injection, schedule: Q01DX009 (ip), vehicle: saline sonified 106 % of control | dose: 200.0 mg/kg/injection, schedule: Q04DX003 (ip), vehicle: Klucel (hydroxypropylcellulose) (HPC) 108 % of control

C/C=C\C1CC2CC(C1C)C2(C)C (configuration not stated)
inactive: dose: 50.0 mg/kg/injection, schedule: Q01DX009 (ip), vehicle: saline 102 % of control | dose: 100.0 mg/kg/injection, schedule: Q01DX009 (ip), vehicle: saline 97 % of control | dose: 200.0 mg/kg/injection, schedule: Q01DX009 (ip), vehicle: saline 105 % of control

Cc1cc(N(C)C)cc(C)c1C(=Nc1ccc(N=C(NO)c2c(C)cc(N(C)C)cc2C)cc1)NO
inactive: [1] 97 % of control | [2] 109 % of control
